The values below come from PubChem BioAssay AID1259408 (Genetic Toxicology Data Bank (GENE-TOX), 2018).

In the data set the test system is GENE-TOX genotoxicity assays, various organisms and cells. Nature of the data set: GENE-TOX mutagenicity studies. The following applies: for call: Assay Type: In vivo carcinogenicity studies.
Setting [1] is: Species/Cell Type: Nonhuman, Assay Type: Sister-chromatid exchange (SCE) in vitro, Assay Code: SC2+D, Dose Response: With dose response, Evaluation Type: Evaluation B (Post-1980).
Setting [2] is: Species/Cell Type: Salmonella typhimurium (one or more of the five standard strains: TA98, TA100, TA1535, TA1537, and TA1538), Assay Type: Histidine reverse gene mutation, Ames assay, Assay Code: SALT, Evaluation Type: Evaluation A (Pre-1980).
Where [3] appears, read: Species/Cell Type: Nonhuman, Assay Code: CCG+, Evaluation Type: Evaluation A (Pre-1980).
Setting [4] is: Species/Cell Type: Drosophila melanogaster, Assay Type: Sex-linked recessive lethal gene mutation, Assay Code: SRL+, Evaluation Type: Evaluation A (Pre-1980).
Setting [5] is: Species/Cell Type: Nonhuman, Assay Type: Sister-chromatid exchange (SCE) in vitro, Assay Code: SC2+, Evaluation Type: Evaluation B (Post-1980).
Where [6] appears, read: Species/Cell Type: Human lymphocytes, Assay Type: Sister-chromatid exchange (SCE) in vitro, Assay Code: SCLT, Evaluation Type: Evaluation B (Post-1980).
Setting [7] is: Species/Cell Type: Human, Assay Type: Sister-chromatid exchange (SCE) in vitro, Assay Code: SC1T, Evaluation Type: Evaluation B (Post-1980).
Where [8] appears, read: Species/Cell Type: Saccharomyces cerevisiae, Assay Type: Mitotic recombination or gene conversion, Assay Code: YEH+, Evaluation Type: Evaluation A (Pre-1980).
Where [9] appears, read: Species/Cell Type: Salmonella typhimurium (one or more of the five standard strains: TA98, TA100, TA1535, TA1537, and TA1538), Assay Type: Histidine reverse gene mutation, Ames assay, Assay Code: SAL+, Evaluation Type: Evaluation A (Pre-1980).
Setting [10] is: Species/Cell Type: Mouse, Sex: Male, Assay Type: Sperm morphology, Assay Code: SPI-, Evaluation Type: Evaluation A (Pre-1980).
Where [11] appears, read: Species/Cell Type: Drosophila melanogaster, Assay Type: Sex-linked recessive lethal gene mutation, Assay Code: SRLT, Evaluation Type: Evaluation A (Pre-1980).

Active and inactive are the calls of the source. How the calls were made is not given here.

Consider `O[C@H]1c2ccccc2-c2cc3ccccc3cc2[C@@H]1O`, for which the mutagenic call was “inactive; negative” (Species/Cell Type: Chinese hamster lung (V79) cells, Assay Type: Forward gene mutation at the HPRT or ouabain locus, Assay Code: V79-, Evaluation Type: Evaluation A (Pre-1980)); “inactive; negative” (Species/Cell Type: Mouse prostate cells, Assay Type: Cell transformation, Assay Code: CTM-, Evaluation Type: Evaluation A (Pre-1980)); “active; positive” under setting [1]; “no conclusion” under setting [2]; “active; positive” (Species/Cell Type: Syrian hamster embryo (SHE) cells, Assay Type: Cell transformation, clonal assay, Assay Code: CTC+, Evaluation Type: Evaluation A (Pre-1980)). Besides, the call (Species/Cell Type: Nonhuman, Assay Code: CCGT, Evaluation Type: Evaluation A (Pre-1980)) is given as “no conclusion”.
Take `CCN(CC)c1nc(C)cc(OP(=S)(OC)OC)n1`: the mutagenic call (Species/Cell Type: Mammalian polychromatic erythrocytes, Assay Type: Micronucleus test, chromosome aberrations, Assay Code: MNTT, Evaluation Type: Evaluation B (Post-1980)) is recorded as “no conclusion”.
In the case of `CC(=O)N(O)c1ccc(/C=C\c2ccccc2)cc1`, the mutagenic call (Species/Cell Type: Human diploid fibroblasts, Assay Type: Unscheduled DNA synthesis (UDS) in vitro, DNA effects, Assay Code: UDH+, Evaluation Type: Evaluation A (Pre-1980)) is “active; positive”. In addition, the call under setting [3] was “active; positive”.
For the compound `FC(F)(Cl)Cl`, the mutagenic call (Species/Cell Type: Tradescantia species, Assay Type: Gene mutation, Assay Code: TRM-, Evaluation Type: Evaluation A (Pre-1980)) was “inactive; negative”.
Turning to `CC1CN1P(=O)(N(C)C)N(C)C` (configuration not stated), the mutagenic call under setting [4] was “active; positive”.
For `CCCCOc1ccc(CC(=O)NOC(C)=O)cc1`, under setting [5], the mutagenic call was “active; positive”.
With `NC(=O)N/N=C/c1ccco1`, the mutagenic call (Species/Cell Type: Escherichia coli WP2 UVRA, Assay Type: Tryptophan reverse gene mutation, Assay Code: WPU-, Evaluation Type: Evaluation A (Pre-1980)) was “inactive; negative”.
On to `O=C1c2c(O)ccc(O)c2C(=O)c2c(NCCc3ccccc3)ccc(NCCc3ccccc3)c21`, for which, under “Species/Cell Type: Salmonella typhimurium (one or more of the five standard strains: TA98, TA100, TA1535, TA1537, and TA1538), Assay Type: Histidine reverse gene mutation, Ames assay, Assay Code: SAL+/-*, Activation: With metabolic activation, Evaluation Type: Evaluation A (Pre-1980)”, the mutagenic call was “inactive; positive without activation, negative with activation”.
`Oc1c(Oc2ccc(Cl)cc2Cl)cc(Cl)c(Cl)c1Cl`: the mutagenic call reads like this: under setting [6], “no conclusion”; under setting [7], “no conclusion”; (Species/Cell Type: Mouse, Sex: Female, Assay Type: Spot test, gene mutation, Assay Code: MSTT, Evaluation Type: Evaluation A (Pre-1980)) “no conclusion”; (Species/Cell Type: Saccharomyces cerevisiae, Assay Type: Forward gene mutation, Assay Code: YEF+, Evaluation Type: Evaluation A (Pre-1980)) “active; positive”; (Species/Cell Type: Saccharomyces cerevisiae, Assay Type: Mitotic recombination or gene conversion, Assay Code: YEC-, Evaluation Type: Evaluation A (Pre-1980)) “inactive; negative”; under setting [8], “active; positive”.
As for `O=Nc1ccc2ccccc2c1`, the mutagenic call under setting [9] was “active; positive”.
As to `Cc1ccc(Cl)cc1N`, under setting [10], the mutagenic call was “inactive; negative”. The call (Species/Cell Type: Nonhuman, Assay Code: CCG+L, Evaluation Type: Evaluation A (Pre-1980)) is “active; positive”.
Take `FC1(F)C(F)(F)C(F)(F)C1(F)F`: the mutagenic call under setting [11] is “no conclusion”.
As to `CN(O)C(=O)c1ccc2ccccc2c1`, the mutagenic call under setting [5] was “active; positive”.
Regarding `COC(F)(F)C(Cl)Cl`, the mutagenic call is, setting by setting: under setting [10], “inactive; negative”; (Species/Cell Type: Nonhuman, Assay Type: Sister-chromatid exchange (SCE) in vitro, Assay Code: SC2T, Evaluation Type: Evaluation B (Post-1980)) “no conclusion”; under setting [2], “no conclusion”.
Consider `O=S(O)OS(=O)O`, for which the mutagenic call (Species/Cell Type: Escherichia coli WP2 UVRA, Assay Type: Tryptophan reverse gene mutation, Assay Code: WPU-*, Activation: With metabolic activation, Evaluation Type: Evaluation A (Pre-1980)) is “inactive; negative”.
In the case of `CCCCCCCC/C=C/CCCCCCCC(=O)OCCOCC(OCCO)C1OCC(OCCO)C1OCCO` (configuration not stated), the mutagenic call is listed as “no conclusion” under setting [6] and “no conclusion” under setting [7].
In the case of `Clc1ccc(Cl)c(Cl)c1`, the mutagenic call (Species/Cell Type: Mammalian polychromatic erythrocytes, Assay Type: Micronucleus test, chromosome aberrations, Assay Code: MNT+, Evaluation Type: Evaluation B (Post-1980)) was “active; positive”.
For `O=NN1CCC[C@H]1c1cccnc1`, under setting [3], the call was “active; positive”. Also, under “Species/Cell Type: Rat primary hepatocytes, Assay Type: Unscheduled DNA synthesis (UDS) in vitro, DNA effects, Assay Code: UDP+, Evaluation Type: Evaluation A (Pre-1980)”, the mutagenic call was “active; positive”.
`Cc1ccc2cccc([N+](=O)[O-])c2n1`: the mutagenic call under setting [9] is “active; positive”.
On to `[Cl][Cd][Cl]`, for which the mutagenic call is “active; positive” (Species/Cell Type: Bacillus subtilis (H17 vs M45), Assay Type: Rec-assay, spot test, DNA effects (bacterial DNA repair), Assay Code: REW+, Evaluation Type: Evaluation A (Pre-1980)); “active; positive” (Species/Cell Type: Drosophila melanogaster, Assay Type: Aneuploidy, whole sex chromosome loss, chromosome aberrations, Assay Code: DAC+, Evaluation Type: Evaluation A (Pre-1980)); “inactive; negative” (Species/Cell Type: Human lymphocytes or leukocytes, Assay Type: Chromosome aberrations in vitro, Assay Code: CY7-, Evaluation Type: Evaluation A (Pre-1980)); “inactive; negative” (Species/Cell Type: Mammalian polychromatic erythrocytes, Assay Type: Micronucleus test, chromosome aberrations, Assay Code: MNT-, Evaluation Type: Evaluation B (Post-1980)); “no conclusion” (Species/Cell Type: Mammalian polychromatic erythrocytes, Assay Type: Micronucleus test, chromosome aberrations, Assay Code: MNTT, Evaluation Type: Evaluation A (Pre-1980)); “no conclusion” (Species/Cell Type: Mouse, Sex: Male, Assay Type: Sperm morphology, Assay Code: SPIT, Evaluation Type: Evaluation A (Pre-1980)). Moreover, the mutagenic call is “inactive; negative” (Species/Cell Type: Nonhuman, Assay Type: Sister-chromatid exchange (SCE) in vitro, Assay Code: SC2-, Evaluation Type: Evaluation B (Post-1980)); “active; positive” (Species/Cell Type: Rabbit, Sex: Male, Assay Type: Sperm morphology, Assay Code: SPR+, Evaluation Type: Evaluation A (Pre-1980)); “active; positive” (Species/Cell Type: Rat, Sex: Male, Assay Type: Sperm morphology, Assay Code: SPA+, Evaluation Type: Evaluation A (Pre-1980)); “inactive; negative” (Species/Cell Type: Rodents, Sex: Male, Assay Type: Dominant lethal test, Assay Code: DLT-, Evaluation Type: Evaluation A (Pre-1980)); “active; positive” under setting [8]; “no conclusion” under setting [2]. In addition, the mutagenic call was “inactive; negative” (Species/Cell Type: Salmonella typhimurium, Assay Type: Forward and reverse gene mutation, host-mediated assay, Assay Code: HMA-, Evaluation Type: Evaluation A (Pre-1980)); “active; positive” (Species/Cell Type: Syrian hamster embryo (SA7/SHE) cells, Assay Type: Cell transformation, viral enhanced, Assay Code: CT7+, Evaluation Type: Evaluation A (Pre-1980)). Further, the call under setting [3] is “active; positive”.
As to `COc1c(C)c2c(c(O)c1C/C=C(\C)CCC(=O)O)C(=O)OC2`, the mutagenic call (Species/Cell Type: Bacillus subtilis (H17 vs M45), Assay Type: Rec-assay, spot test, DNA effects (bacterial DNA repair), Assay Code: REW-, Evaluation Type: Evaluation A (Pre-1980)) was “inactive; negative”; the mutagenic call (Species/Cell Type: Nonhuman, Assay Type: Chromosome aberrations in vitro, Assay Code: CY&+, Evaluation Type: Evaluation A (Pre-1980)) was “active; positive”; the mutagenic call under setting [2] is listed as “no conclusion”.
As for `O=c1ccn([C@H]2C[C@H](O)[C@@H](CO)O2)c(=O)[nH]1`, the mutagenic call under setting [11] is listed as “no conclusion”.
Take `O=[N+]([O-])c1ccc2ccc3c4ccccc4cc4ccc1c2c43`: the mutagenic call (Species/Cell Type: Chinese hamster ovary (CHO) cells, Assay Type: Forward gene mutation at the HPRT locus, Assay Code: CHO+*, Activation: With metabolic activation, Evaluation Type: Evaluation B (Post-1980)) is “active; positive”.
`COc1cc(-c2ccc(N)c(OC)c2)ccc1N`: the mutagenic call was “no conclusion” (Species/Cell Type: Escherichia coli polA (W3119 vs P3478), Assay Type: Rec-assay, DNA effects (bacterial DNA repair), Assay Code: RE1T, Evaluation Type: Evaluation A (Pre-1980)); “active; positive” (Species/Cell Type: Human diploid fibroblasts, Assay Type: Unscheduled DNA synthesis (UDS) in vitro, DNA effects, Assay Code: UDH+*, Activation: With metabolic activation, Evaluation Type: Evaluation A (Pre-1980)); “active; positive” under setting [1]; “active; positive” (Species/Cell Type: Salmonella typhimurium (one or more of the five standard strains: TA98, TA100, TA1535, TA1537, and TA1538), Assay Type: Histidine reverse gene mutation, Ames assay, Assay Code: SAL+*, Activation: With metabolic activation, Evaluation Type: Evaluation A (Pre-1980)). Also, under setting [3], the call was “active; positive”.
As for `CC(=O)Nc1ccc(N=NN(C)C)cc1`, the mutagenic call under setting [4] was “active; positive” and the mutagenic call (Species/Cell Type: Saccharomyces cerevisiae, Assay Type: Mitotic recombination or gene conversion, Assay Code: YEH+/-*, Activation: With metabolic activation, Evaluation Type: Evaluation A (Pre-1980)) was “inactive; positive without activation, negative with activation”.
